Measured values published in paper PMC7083225 (Cell Chemical Biology, 2020).

B1: VSD2-NavAb chimeric channel (hNav1.7 VSD2 sequences fused to a NavAb scaffold) (other)
chain: MYLRITNIVESSFFTKFIIYLIVLNTLFMAMEHHPMTEEFKNVLAIGNLVFTGIFAIEIILRIYVHRISFFKDPWSLFDSLIVTLSLVELFLADVEGLSVLRSFRLLRVFRLVTAVPQMRKIVSALISVIPGMLSVIALMTLFFYIFAIMATQLFGERFPEWFGTLGESFYTLFQVMTLESWSMGIVRPLMEVYPYAWVFFIPFIFVVTFVMINLVVAICVDAMAILNQKEEQHIIDEVQSHEDNINNEIIKLREEIVELKELIKTSLKN
notes: not shown: FLAG, N-terminal, kept

Target: human Nav1.7 (Homo sapiens, UniProt Q15858)
Sequence (Q15858 1-1977 isoform Q15858-4): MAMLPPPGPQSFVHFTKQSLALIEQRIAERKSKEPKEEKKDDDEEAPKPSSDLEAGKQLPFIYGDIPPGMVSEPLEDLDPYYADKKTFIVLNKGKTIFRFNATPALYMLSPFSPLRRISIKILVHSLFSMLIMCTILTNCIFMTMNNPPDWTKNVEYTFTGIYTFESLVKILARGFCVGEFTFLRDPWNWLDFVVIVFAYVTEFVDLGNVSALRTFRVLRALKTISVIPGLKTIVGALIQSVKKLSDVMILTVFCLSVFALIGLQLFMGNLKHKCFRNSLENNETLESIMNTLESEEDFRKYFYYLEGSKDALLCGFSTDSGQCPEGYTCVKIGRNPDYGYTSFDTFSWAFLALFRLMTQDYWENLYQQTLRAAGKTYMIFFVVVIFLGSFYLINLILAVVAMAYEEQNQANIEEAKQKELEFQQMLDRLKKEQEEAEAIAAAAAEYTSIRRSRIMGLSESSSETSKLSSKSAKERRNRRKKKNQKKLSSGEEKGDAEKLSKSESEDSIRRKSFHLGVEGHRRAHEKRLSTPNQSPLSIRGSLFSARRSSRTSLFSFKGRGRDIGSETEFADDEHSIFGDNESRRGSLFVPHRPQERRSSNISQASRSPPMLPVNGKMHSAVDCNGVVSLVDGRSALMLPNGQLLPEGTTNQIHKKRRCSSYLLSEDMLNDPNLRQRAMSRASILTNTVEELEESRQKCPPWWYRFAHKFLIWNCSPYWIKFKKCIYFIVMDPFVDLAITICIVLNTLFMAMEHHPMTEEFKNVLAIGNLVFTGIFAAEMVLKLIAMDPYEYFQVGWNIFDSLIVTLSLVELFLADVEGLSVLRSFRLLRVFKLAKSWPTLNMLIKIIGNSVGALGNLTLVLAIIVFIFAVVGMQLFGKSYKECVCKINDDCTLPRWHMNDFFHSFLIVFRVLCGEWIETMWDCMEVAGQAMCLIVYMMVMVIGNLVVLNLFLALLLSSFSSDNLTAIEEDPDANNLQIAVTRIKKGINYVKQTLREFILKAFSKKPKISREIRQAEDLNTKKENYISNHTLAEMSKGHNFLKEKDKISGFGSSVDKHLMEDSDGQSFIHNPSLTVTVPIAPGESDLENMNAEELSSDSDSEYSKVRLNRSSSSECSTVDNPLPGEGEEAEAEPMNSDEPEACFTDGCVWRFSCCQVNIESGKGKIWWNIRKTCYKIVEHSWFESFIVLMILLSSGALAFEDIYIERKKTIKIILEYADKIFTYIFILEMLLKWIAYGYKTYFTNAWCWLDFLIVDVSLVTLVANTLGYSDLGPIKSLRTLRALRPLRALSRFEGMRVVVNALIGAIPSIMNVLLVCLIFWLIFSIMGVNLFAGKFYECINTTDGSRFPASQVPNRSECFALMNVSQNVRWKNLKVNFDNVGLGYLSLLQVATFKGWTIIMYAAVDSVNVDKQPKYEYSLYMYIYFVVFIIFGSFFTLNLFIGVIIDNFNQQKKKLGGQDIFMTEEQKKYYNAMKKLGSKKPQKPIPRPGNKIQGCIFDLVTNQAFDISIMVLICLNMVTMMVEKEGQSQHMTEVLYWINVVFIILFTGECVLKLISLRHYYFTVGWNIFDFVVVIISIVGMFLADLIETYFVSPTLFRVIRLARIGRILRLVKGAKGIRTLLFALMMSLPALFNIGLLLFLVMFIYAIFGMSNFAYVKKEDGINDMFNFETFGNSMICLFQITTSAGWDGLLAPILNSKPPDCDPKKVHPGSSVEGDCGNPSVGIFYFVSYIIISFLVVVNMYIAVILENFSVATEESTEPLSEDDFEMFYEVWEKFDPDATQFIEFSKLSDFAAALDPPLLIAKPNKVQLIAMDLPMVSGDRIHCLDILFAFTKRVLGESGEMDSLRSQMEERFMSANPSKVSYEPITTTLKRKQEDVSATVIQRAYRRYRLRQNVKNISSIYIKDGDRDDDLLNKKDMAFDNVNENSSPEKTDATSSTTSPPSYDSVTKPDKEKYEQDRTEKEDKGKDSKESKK
Experiment: Automated patch-clamp electrophysiology, CHO cells expressing Nav1.7
Assay type: cell-based
Conditions: SyncroPatch 768PE automated patch clamp; CHO stable cell line expressing human Nav1.7; holding -120 mV, 10 ms pulse to -10 mV every 2 s; 25 min compound; four-parameter Hill fit, each point n = 3-20; read-out: IC50 (nM), Nav1.7 inhibition
Description: The obtained photoprobes were evaluated in a patch-clamp assay using CHO cells expressing Nav1.7 (Figure 1D).
For electrophysiological recordings, the human Nav1.7 (XM_011511618) expressing CHO stable cell line (Anaxon, Switzerland) was cultured in Ham’s F12 medium supplemented with 10% FBS, 2 mM L-Glutamine and required selection antibiotic in 5% CO2 at 37°C.
For all Nav channel recordings, the intracellular solution contained (in mM): 50 CsCl, 60 CsF, 10 NaCl, 20 EGTA and 10 HEPES (pH 7.2, osmolarity 285 mOsm), and extracellular solution contained (in mM): 80 NaCl, 60 NMDG, 4 KCl, 2 CaCl2, 1 MgCl2, 5 glucose and 10 HEPES (pH 7.4, osmolarity 300 mOsm). Automated patch clamp (APC) recordings were performed by using SyncroPatch 768PE (Nanion Technologies, Germany), with PatchController384 V1.5.2 and DataController384 V1.5.0 software for pulse generation and data collection. Currents were sampled at 10 kHz and filtered with Bessel filter. Series resistance was compensated 80% with leak subtraction. Seal resistance (Rseal) was calculated using built-in protocols, and high-quality recoding data was obtained by auto filtering 3 quality control criteria: cell catching (>10 MΩ), seal resistance (>500 MΩ) and baseline current amplitude (>500 pA), and follow with manual inspection. The voltage protocol for all toxin pharmacological tests was set with holding membrane potential (Vm) at -120 mV, eliciting a 10 ms pulse to -10 mV every 2 s, recording 5 min for baseline and followed with examining compound effect for 25 min. Nav channel inhibition was calculated as the percentage of peak current (I) decrease from before compound application (I_Baseline) to the end of 25 minutes compound application (I_End) and both being normalized to the end of experiment full block current (I_Fullblock) using this following equation: Block%=[1−(Iend−Ifullblock/Ibaseline−Ifullblock)]×100%
All Nav channel inhibitions were presented as mean ± standard error of the mean from at least three independent trials.

Row | Molecule | IC50 [nM]
1 | CC[C@H](C)[C@H](NC(=O)[C@H](CCC(N)=O)NC(=O)[C@H](Cc1ccc(O)cc1)NC(=O)[C@H](CCCCN)NC(=O)[C@@H]1CSSC[C@@H]2NC(=O)[C@H](CCC(N)=O)NC(=O)[C@H](CC(=O)O)NC(=O)[C@H](CC(N)=O)NC(=O)[C@H](CO)NC(=O)[C@@H]3CCCN3C(=O)[C@H](CC(N)=O)NC(=O)[C@@H]3CSSC[C@H](NC(=O)[C@H](C(C)C)NC(=O)[C@H](CC(C)C)NC(=O)[C@H](CCCCN)NC(=O)[C@H](CO)NC(=O)[C@H](CO)NC(=O)[C@H](CCCCN)NC(=O)[C@H](CSSC[C@H](NC(=O)[C@@H](N)CCC(=O)O)C(=O)N[C@@H](CC(C)C)C(=O)N[C@@H](CCC(=O)O)C(=O)N[C@@H]([C@@H](C)CC)C(=O)N[C@@H](Cc4ccccc4)C(=O)N[C@@H](CCC4(C)N=N4)C(=O)N[C@@H](C)C(=O)N3)NC2=O)C(=O)N[C@@H](CO)C(=O)N[C@@H](CCCNC(=N)N)C(=O)N[C@@H](CCCCN)C(=O)N[C@@H]([C@@H](C)O)C(=O)N[C@@H](CCCNC(=N)N)C(=O)N[C@@H](Cc2c[nH]c3ccccc23)C(=O)N1)C(N)=O [HTMp7] | 40
2 | CC[C@H](C)[C@@H]1NC(=O)[C@H](CCC(=O)O)NC(=O)[C@H](CC(C)C)NC(=O)[C@@H](NC(=O)[C@@H](N)CCC(=O)O)CSSC[C@@H]2NC(=O)[C@@H]3CSSC[C@@H](C(=O)N[C@@H](CCCCN)C(=O)N[C@@H](Cc4ccc(O)cc4)C(=O)N[C@@H](CCC(N)=O)C(=O)N[C@@H](CCC4(C)N=N4)C(N)=O)NC(=O)[C@H](Cc4c[nH]c5ccccc45)NC(=O)[C@H](CCCNC(=N)N)NC(=O)[C@H]([C@@H](C)O)NC(=O)[C@H](CCCCN)NC(=O)[C@H](CCCNC(=N)N)NC(=O)[C@H](CO)NC(=O)[C@H](CSSC[C@H](NC(=O)[C@H](C)NC(=O)[C@H](CCCCN)NC(=O)[C@H](Cc4ccccc4)NC1=O)C(=O)N[C@@H](CC(N)=O)C(=O)N1CCC[C@H]1C(=O)N[C@@H](CO)C(=O)N[C@@H](CC(N)=O)C(=O)N[C@@H](CC(=O)O)C(=O)N[C@@H](CCC(N)=O)C(=O)N3)NC(=O)[C@H](C(C)C)NC(=O)[C@H](CC(C)C)NC(=O)[C@H](CCCCN)NC(=O)[C@H](CO)NC(=O)[C@H](CO)NC(=O)[C@H](CCCCN)NC2=O [HTMp35] | 13
3 | CC[C@H](C)[C@H](NC(=O)[C@H](CCC(N)=O)NC(=O)[C@H](Cc1ccc(O)cc1)NC(=O)[C@H](CCCCN)NC(=O)[C@@H]1CSSC[C@@H]2NC(=O)[C@H](CCC(N)=O)NC(=O)[C@H](CC(=O)O)NC(=O)[C@H](CC(N)=O)NC(=O)[C@H](CO)NC(=O)[C@@H]3CCCN3C(=O)[C@H](CC(N)=O)NC(=O)[C@@H]3CSSC[C@H](NC(=O)[C@H](C(C)C)NC(=O)[C@H](CC(C)C)NC(=O)[C@H](CCCCN)NC(=O)[C@H](CO)NC(=O)[C@H](CO)NC(=O)[C@H](CCCCN)NC(=O)[C@H](CSSC[C@H](NC(=O)[C@@H](N)CCC(=O)O)C(=O)N[C@@H](CC(C)C)C(=O)N[C@@H](CCC(=O)O)C(=O)N[C@@H](CCC4(C)N=N4)C(=O)N[C@@H](Cc4ccccc4)C(=O)N[C@@H](CCCCN)C(=O)N[C@@H](C)C(=O)N3)NC2=O)C(=O)N[C@@H](CO)C(=O)N[C@@H](CCCNC(=N)N)C(=O)N[C@@H](CCCCN)C(=O)N[C@@H]([C@@H](C)O)C(=O)N[C@@H](CCCNC(=N)N)C(=O)N[C@@H](Cc2c[nH]c3ccccc23)C(=O)N1)C(N)=O [HTMp5] | 41
4 | CC[C@H](C)[C@H](NC(=O)[C@H](CCC(N)=O)NC(=O)[C@H](Cc1ccc(O)cc1)NC(=O)[C@H](CCCCN)NC(=O)[C@@H]1CSSC[C@@H]2NC(=O)[C@H](CCC(N)=O)NC(=O)[C@H](CC(=O)O)NC(=O)[C@H](CC(N)=O)NC(=O)[C@H](CO)NC(=O)[C@@H]3CCCN3C(=O)[C@H](CC(N)=O)NC(=O)[C@@H]3CSSC[C@H](NC(=O)[C@H](C(C)C)NC(=O)[C@H](CC(C)C)NC(=O)[C@H](CCC4(C)N=N4)NC(=O)[C@H](CO)NC(=O)[C@H](CO)NC(=O)[C@H](CCCCN)NC(=O)[C@H](CSSC[C@H](NC(=O)[C@@H](N)CCC(=O)O)C(=O)N[C@@H](CC(C)C)C(=O)N[C@@H](CCC(=O)O)C(=O)N[C@@H]([C@@H](C)CC)C(=O)N[C@@H](Cc4ccccc4)C(=O)N[C@@H](CCCCN)C(=O)N[C@@H](C)C(=O)N3)NC2=O)C(=O)N[C@@H](CO)C(=O)N[C@@H](CCCNC(=N)N)C(=O)N[C@@H](CCCCN)C(=O)N[C@@H]([C@@H](C)O)C(=O)N[C@@H](CCCNC(=N)N)C(=O)N[C@@H](Cc2c[nH]c3ccccc23)C(=O)N1)C(N)=O [HTMp21] | 35
5 | CC[C@H](C)[C@H](NC(=O)[C@H](CCC(N)=O)NC(=O)[C@H](Cc1ccc(O)cc1)NC(=O)[C@H](CCCCN)NC(=O)[C@@H]1CSSC[C@@H]2NC(=O)[C@H](CCC(N)=O)NC(=O)[C@H](CC(=O)O)NC(=O)[C@H](CC(N)=O)NC(=O)[C@H](CO)NC(=O)[C@@H]3CCCN3C(=O)[C@H](CC(N)=O)NC(=O)[C@@H]3CSSC[C@H](NC(=O)[C@H](C(C)C)NC(=O)[C@H](CC(C)C)NC(=O)[C@H](CCCCN)NC(=O)[C@H](CO)NC(=O)[C@H](CO)NC(=O)[C@H](CCCCN)NC(=O)[C@H](CSSC[C@H](NC(=O)[C@@H](N)CCC(=O)O)C(=O)N[C@@H](CC(C)C)C(=O)N[C@@H](CCC(=O)O)C(=O)N[C@@H]([C@@H](C)CC)C(=O)N[C@@H](Cc4ccccc4)C(=O)N[C@@H](CCCCN)C(=O)N[C@@H](C)C(=O)N3)NC2=O)C(=O)N[C@@H](CO)C(=O)N[C@@H](CCCNC(=N)N)C(=O)N[C@@H](CCCCN)C(=O)N[C@@H]([C@@H](C)O)C(=O)N[C@@H](CCC2(C)N=N2)C(=O)N[C@@H](Cc2c[nH]c3ccccc23)C(=O)N1)C(N)=O [HTMp29] | 68
6 | CC[C@H](C)[C@H](NC(=O)[C@H](CCC(N)=O)NC(=O)[C@H](Cc1ccc(O)cc1)NC(=O)[C@H](CCCCN)NC(=O)[C@@H]1CSSC[C@@H]2NC(=O)[C@H](CCC(N)=O)NC(=O)[C@H](CC(=O)O)NC(=O)[C@H](CC(N)=O)NC(=O)[C@H](CO)NC(=O)[C@@H]3CCCN3C(=O)[C@H](CC(N)=O)NC(=O)[C@@H]3CSSC[C@H](NC(=O)[C@H](C(C)C)NC(=O)[C@H](CC(C)C)NC(=O)[C@H](CCCCN)NC(=O)[C@H](CO)NC(=O)[C@H](CO)NC(=O)[C@H](CCCCN)NC(=O)[C@H](CSSC[C@H](NC(=O)[C@@H](N)CCC(=O)O)C(=O)N[C@@H](CC(C)C)C(=O)N[C@@H](CCC(=O)O)C(=O)N[C@@H]([C@@H](C)CC)C(=O)N[C@@H](Cc4ccccc4)C(=O)N[C@@H](CCCCN)C(=O)N[C@@H](C)C(=O)N3)NC2=O)C(=O)N[C@@H](CO)C(=O)N[C@@H](CCCNC(=N)N)C(=O)N[C@@H](CCC2(C)N=N2)C(=O)N[C@@H]([C@@H](C)O)C(=O)N[C@@H](CCCNC(=N)N)C(=O)N[C@@H](Cc2c[nH]c3ccccc23)C(=O)N1)C(N)=O [HTMp27] | 80

Target: the molecule itself
Experiment: SEC; size-exclusion chromatography after anti-FLAG affinity purification, in GDN detergent
Conditions: not given

Row | Molecule | binding result
7 | B1 | binds
